Assay results published in patent US8802711B2, “TRPV1 antagonists” (AbbVie Inc., priority 2011, dated 2014).
Where two headings read alike, the source gives them in different places.

Columns and labels:
[1] = biological target: human TRPV1 receptor (hTRPV1) (Homo sapiens (Human), UniProt Q8NER1); assay: Acid activation assay (pH 5.0, FLIPR intracellular Ca2+); type: cell-based; conditions: 37.5 μM antagonist, percentage of the maximal pH 5.0-induced response remaining, read-out: hTRPV1 H+ (max % remain)
Sequence of human TRPV1 receptor (hTRPV1) (Q8NER1 whole entry): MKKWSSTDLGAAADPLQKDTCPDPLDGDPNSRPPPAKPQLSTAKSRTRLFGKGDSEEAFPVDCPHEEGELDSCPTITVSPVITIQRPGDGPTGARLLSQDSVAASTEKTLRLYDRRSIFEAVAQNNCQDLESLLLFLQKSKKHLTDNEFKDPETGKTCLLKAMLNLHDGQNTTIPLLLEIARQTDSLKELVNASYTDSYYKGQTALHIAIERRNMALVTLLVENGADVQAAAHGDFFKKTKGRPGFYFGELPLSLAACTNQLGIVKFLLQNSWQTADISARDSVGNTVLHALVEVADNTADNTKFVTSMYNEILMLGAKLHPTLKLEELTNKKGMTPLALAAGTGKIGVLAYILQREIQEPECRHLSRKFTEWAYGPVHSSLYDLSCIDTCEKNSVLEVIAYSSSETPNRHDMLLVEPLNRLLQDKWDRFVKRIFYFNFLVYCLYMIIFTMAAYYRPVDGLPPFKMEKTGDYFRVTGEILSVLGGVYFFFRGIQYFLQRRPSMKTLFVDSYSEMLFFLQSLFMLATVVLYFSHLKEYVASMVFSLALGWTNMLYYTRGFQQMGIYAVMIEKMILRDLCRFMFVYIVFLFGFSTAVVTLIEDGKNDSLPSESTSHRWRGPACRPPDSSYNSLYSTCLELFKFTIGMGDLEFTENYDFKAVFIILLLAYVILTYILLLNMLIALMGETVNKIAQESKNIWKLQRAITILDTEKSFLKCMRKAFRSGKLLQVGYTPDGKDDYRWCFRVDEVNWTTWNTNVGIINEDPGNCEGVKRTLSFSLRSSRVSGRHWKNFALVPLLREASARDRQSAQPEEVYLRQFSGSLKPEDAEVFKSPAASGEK
Summary of the method: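 1321N1 astrocytoma cells stably expressing homomeric hTRPV1, loaded with Calcium-4 dye 90–120 min at 25 °C. Compounds, 12-point half-log range, added 3 min before pH 5.0 DPBS/MES challenge; intracellular Ca2+ read by FLIPR fluorescence.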

Sprague-Dawley rats = assay: Capsaicin-induced secondary mechanical hypersensitivity; type: in vivo, rat
Text: Adult male Sprague-Dawley rats (250-300 g body weight, Charles River Laboratories, Portage, Mich.) were used. Animal handling and experimental protocols were approved by the Institutional Animal Care and Use Committee (IACUC) at Abbott Laboratories. For all surgical procedures, animals were maintained under isoflurane anesthesia (4-5% to induce, 1-3% to maintain), and the incision sites were sterilized using a 10% povidone-iodine solution prior to and after surgeries.
Rats were allowed to acclimate to the study room for 1 hour. They were then briefly restrained, and capsaicin was administered at 10 μg in 10 μL of vehicle (10% ethanol and 2-hydroxypropyl cyclodextrin) by intraplantar injection into the center of the right hind paw. Secondary mechanical hyperalgesia was measured at the heel away from the site of injection at 180 minutes following the administration of capsaicin (Joshi et al 2006, Neuroscience 143, 587-596). Compounds were administered orally (p.o.) one hour before testing ([…]).
Tactile allodynia was measured using calibrated von Frey filaments (Stoelting, Wood Dale, Ill.) as described in Chaplan, S. R., F. W. Bach, J. M. Pogrel, J. M. Chung and T. L. Yaksh, Quantitative assessment of tactile allodynia in the rat paw, J. Neurosci. Methods, 1994, 53, 55. Rats were placed into inverted individual plastic containers (20×12.5×20 cm) on top of a suspended wire mesh grid, and acclimated to the test chambers for 20 minutes. The von Frey filaments with different bending forces (starting with the lowest first and then progressively increasing) were presented perpendicularly to the plantar surface of the selected hind paw, and then hold in this position for approximately 8 sec with enough force to cause a slight bend in the filament. Positive responses included an abrupt withdrawal of the hind paw from the stimulus, or flinching behavior immediately following removal of the stimulus.

| remaining activity at 37.5 µM ([1]; Table 1) | remaining activity at 37.5 µM ([1]; Table 2) | Structure (SMILES) | % effect (Sprague-Dawley rats; 10 μmol/kg p.o.) | % effect (Sprague-Dawley rats; 100 μmol/kg p.o.) |
| --- | --- | --- | --- | --- |
| 37% | 21% | Cn1ncc2c(NC(=O)N[C@@H]3CC[C@H](c4ccccc4)C3)cccc21 [Example 4, 1-(1-methyl-1H-indazol-4-yl)-3-[(1R,3S)-3-phenylcyclopentyl]urea] |  |  |
| 62% | 62% | Cc1cc2c(NC(=O)N[C@@H]3CC[C@H](c4ccccc4)C3)c(F)ccc2cn1 [Example 6, 1-(6-fluoro-3-methylisoquinolin-5-yl)-3-[(1R,3S)-3-phenylcyclopentyl]urea] | 59% |  |
| 36% | 36% | O=C(Nc1cccc2[nH]ncc12)N[C@H]1CC[C@H](c2ccccc2)C1 [Example 14, 1-(1H-indazol-4-yl)-3-[(1S,3S)-3-phenylcyclopentyl]urea] |  | 48% |
| 8% | 8% | O=C(Nc1cccc2[nH]ncc12)N[C@@H]1CC[C@@H](c2ccccc2)C1 [Example 21, 1-(1H-indazol-4-yl)-3-[(1R,3R)-3-phenylcyclopentyl]urea] |  |  |
| 41% | 41% | O=C(Nc1cccc2[nH]ncc12)N[C@H]1CC[C@@H](c2ccccc2)C1 [Example 28, 1-(1H-indazol-4-yl)-3-[(1S,3R)-3-phenylcyclopentyl]urea] |  | 81% |
